Test results reported in patent US20130040944A1, “MGLUR4 ALLOSTERIC POTENTIATORS, COMPOSITIONS, AND METHODS OF TREATING NEUROLOGICAL DYSFUNCTION” (VANDERBILT UNIVERSITY, priority 2009, published 2013).

target: human mGluR4 (Homo sapiens, UniProt Q14833); experiment: potentiation of human mGluR4 in transfected CHO cells, Ca2+-sensitive dye fluorescence, EC20 agonist; conditions: CHO, read-out: % Glu Max
Sequence (Q14833 33-912): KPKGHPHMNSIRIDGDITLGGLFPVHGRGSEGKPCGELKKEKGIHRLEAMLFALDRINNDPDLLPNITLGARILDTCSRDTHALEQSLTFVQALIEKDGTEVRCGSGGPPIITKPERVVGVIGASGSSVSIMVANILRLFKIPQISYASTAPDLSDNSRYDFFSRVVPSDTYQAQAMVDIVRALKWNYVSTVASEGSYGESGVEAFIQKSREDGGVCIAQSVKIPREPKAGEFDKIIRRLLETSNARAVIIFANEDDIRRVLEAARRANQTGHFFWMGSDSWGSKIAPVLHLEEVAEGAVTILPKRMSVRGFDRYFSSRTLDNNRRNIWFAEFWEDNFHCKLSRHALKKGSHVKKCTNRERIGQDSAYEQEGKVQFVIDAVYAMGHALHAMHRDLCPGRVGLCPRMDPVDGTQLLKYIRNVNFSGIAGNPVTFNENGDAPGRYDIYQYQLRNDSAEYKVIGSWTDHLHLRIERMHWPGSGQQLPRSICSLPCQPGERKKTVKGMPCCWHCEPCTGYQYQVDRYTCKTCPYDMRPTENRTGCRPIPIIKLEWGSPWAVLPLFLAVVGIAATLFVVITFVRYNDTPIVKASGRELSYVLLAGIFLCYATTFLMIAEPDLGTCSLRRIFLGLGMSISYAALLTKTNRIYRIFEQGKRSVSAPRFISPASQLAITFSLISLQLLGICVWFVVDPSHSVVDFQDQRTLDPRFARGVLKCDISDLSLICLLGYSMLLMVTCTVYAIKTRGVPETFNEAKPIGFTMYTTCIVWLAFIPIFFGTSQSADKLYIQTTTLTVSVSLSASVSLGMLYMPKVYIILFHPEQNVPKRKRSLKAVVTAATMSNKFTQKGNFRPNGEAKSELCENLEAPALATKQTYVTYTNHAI

| Emax [%] | SMILES |
| --- | --- |
| 90 | Cc1cccc(C(=O)Nc2ccn(S(=O)(=O)Cc3ccccc3)c2)n1 [Example 43, N-(1-(benzylsulfonyl)-1H-pyrrol-3-yl)-6-methylpicolinamide] |
| 129 | O=C(Nc1ccn(S(=O)(=O)Cc2ccccc2)c1)c1cscn1 [Example 42, N-(1-(benzylsulfonyl)-1H-pyrrol-3-yl)thiazole-4-carboxamide] |
| 55 | O=C(Nc1ccn(S(=O)(=O)Cc2ccccc2)c1)c1ccccc1 [Example 6, N-(1-(benzylsulfonyl)-1H-pyrrol-3-yl)benzamide] |
| 141 | N#Cc1cccc(CS(=O)(=O)n2ccc(NC(=O)c3ccccn3)c2)c1 [Example 26] |
| 227 | O=C(Nc1ccn(S(=O)(=O)Cc2ccccc2)c1)c1ccco1 [Example 1, N-(1-(benzylsulfonyl)-1H-pyrrol-3-yl)furan-2-carboxamide] |
| 93 | O=C(Nc1ccn(S(=O)(=O)c2ccccc2)c1)c1ccccc1 [Example 5, N-(1-(phenylsulfonyl)-1H-pyrrol-3-yl)benzamide] |

same assay, conditions: EC50 (nM), potentiation of EC20 agonist response; Table I

| EC50 [nM] | SMILES |
| --- | --- |
| 9540 | Cc1cccc(C(=O)Nc2ccn(S(=O)(=O)Cc3ccccc3)c2)n1 [Example 43, N-(1-(benzylsulfonyl)-1H-pyrrol-3-yl)-6-methylpicolinamide] |
| 4620 | O=C(Nc1ccn(S(=O)(=O)Cc2ccccc2)c1)c1cscn1 [Example 42, N-(1-(benzylsulfonyl)-1H-pyrrol-3-yl)thiazole-4-carboxamide] |
| 951 | O=C(Nc1ccn(S(=O)(=O)Cc2ccccc2)c1)c1ccccc1 [Example 6, N-(1-(benzylsulfonyl)-1H-pyrrol-3-yl)benzamide] |
| 5080 | N#Cc1cccc(CS(=O)(=O)n2ccc(NC(=O)c3ccccn3)c2)c1 [Example 26] |
| 6410 | O=C(Nc1ccn(S(=O)(=O)Cc2ccccc2)c1)c1ccco1 [Example 1, N-(1-(benzylsulfonyl)-1H-pyrrol-3-yl)furan-2-carboxamide] |
| 8170 | O=C(Nc1ccn(S(=O)(=O)c2ccccc2)c1)c1ccccc1 [Example 5, N-(1-(phenylsulfonyl)-1H-pyrrol-3-yl)benzamide] |

same assay, conditions: hEC50, human mGluR4 potentiation; unit inferred

| EC50 [nM] | SMILES |
| --- | --- |
| 767 | O=C(Nc1ccn(S(=O)(=O)Cc2ccccc2Cl)c1)c1nccs1 [Example 52, N-(1-((2-chlorobenzyl)sulfonyl)-1H-pyrrol-3-yl)thiazole-2-carboxamide] |
| 162 | O=C(Nc1ccn(S(=O)(=O)c2ccc(Cl)cn2)c1)c1ccccn1 [Example 121, N-(1-((5-chloropyridin-2-yl)sulfonyl)-1H-pyrrol-3-yl)picolinamide] |
| 3810 | Cc1ccc(S(=O)(=O)n2cc(NC(=O)c3ccccn3)cc2C)cc1 [Example 151, N-(5-methyl-1-tosyl-1H-pyrrol-3-yl)picolinamide] |
| 178 | O=C(Nc1ccn(S(=O)(=O)c2cccc(F)c2)c1)c1ccccn1 [Example 90, N-(1-((3-fluorophenyl)sulfonyl)-1H-pyrrol-3-yl)picolinamide] |
| 389 | O=C(Nc1ccn(S(=O)(=O)c2ccc(Cl)c(F)c2)c1)c1ccccn1 [Example 103, N-(1-((4-chloro-3-fluorophenyl)sulfonyl)-1H-pyrrol-3-yl)picolinamide] |
| 351 | CC1(C)CCc2cc(S(=O)(=O)n3ccc(NC(=O)c4ccccn4)c3)ccc2O1 [Example 149, N-(1-((2,2-dimethylchroman-6-yl)sulfonyl)-1H-pyrrol-3-yl)picolinamide] |
| 5730 | COc1ccc(S(=O)(=O)n2ccc(NC(=O)c3ccccn3)c2)cc1OC [Example 101, N-(1-((3,4-dimethoxyphenyl)sulfonyl)-1H-pyrrol-3-yl)picolinamide] |
| 129 | Cc1ccc(S(=O)(=O)n2ccc(NC(=O)c3ccccn3)c2)cc1Cl [Example 112, N-(1-((3-chloro-4-methylphenyl)sulfonyl)-1H-pyrrol-3-yl)picolinamide] |
| 6380 | O=C(O)c1ccc(S(=O)(=O)n2ccc(NC(=O)c3ccccn3)c2)cc1 [Example 155, 4-((3-(picolinamido)-1H-pyrrol-1-yl)sulfonyl)benzoic acid] |
| 4800 | O=C(Nc1ccn(S(=O)(=O)Cc2cccc(F)c2)c1)c1nccs1 [Example 84, N-(1-((3-fluorobenzyl)sulfonyl)-1H-pyrrol-3-yl)thiazole-2-carboxamide] |
| 3240 | O=C(Nc1ccn(S(=O)(=O)c2ccc(OC(F)F)cc2)c1)c1ccco1 [Example 163, N-(1-((4-(difluoromethoxy)phenyl)sulfonyl)-1H-pyrrol-3-yl)furan-2-carboxamide] |
| 640 | O=C(Nc1ccn(S(=O)(=O)c2ccc(F)c(Cl)c2)c1)c1ccccn1 [Example 128, N-(1-((3-chloro-4-fluorophenyl)sulfonyl)-1H-pyrrol-3-yl)picolinamide] |
| 280 | Cc1ccc(CS(=O)(=O)n2ccc(NC(=O)c3ccccn3)c2)cc1 [Example 47, N-(1-((4-methylbenzyl)sulfonyl)-1H-pyrrol-3-yl)picolinamide] |
| 6970 | O=C(Nc1ccn(S(=O)(=O)Cc2ccccc2Cl)c1)c1ncccc1F [Example 65, N-(1-((2-chlorobenzyl)sulfonyl)-1H-pyrrol-3-yl)-3-fluoropicolinamide] |
| 116 | COc1ccc(S(=O)(=O)n2ccc(NC(=O)c3ccccn3)c2)cn1 [Example 140, N-(1-((6-methoxypyridin-3-yl)sulfonyl)-1H-pyrrol-3-yl)picolinamide] |
| 144 | O=C(Nc1ccn(S(=O)(=O)Cc2ccc(Br)cc2)c1)c1ccccn1 [Example 70, N-(1-((4-bromobenzyl)sulfonyl)-1H-pyrrol-3-yl)picolinamide] |
| 489 | N#Cc1ccccc1S(=O)(=O)n1ccc(NC(=O)c2ccccn2)c1 [Example 79, N-(1-((2-cyanophenyl)sulfonyl)-1H-pyrrol-3-yl)picolinamide] |
| 88.7 | Cc1ccc(S(=O)(=O)n2ccc(NC(=O)c3ccccn3)c2)s1 [Example 135, N-(1-((5-methylthiophen-2-yl)sulfonyl)-1H-pyrrol-3-yl)picolinamide] |
| 1620 | O=C(Nc1ccn(S(=O)(=O)c2cccc(C(F)(F)F)c2)c1)c1ccccn1 [Example 85, N-(1-((3-(trifluoromethyl)phenyl)sulfonyl)-1H-pyrrol-3-yl)picolinamide] |
| 3680 | Cc1ccc(S(=O)(=O)c2cc(NC(=O)c3ccccn3)cn2C)cc1 [Example 157, N-(1-methyl-5-tosyl-1H-pyrrol-3-yl)picolinamide] |
| 4790 | Cn1cc(S(=O)(=O)n2ccc(NC(=O)c3ccccn3)c2)cn1 [Example 143, N-(1-((1-methyl-1H-pyrazol-4-yl)sulfonyl)-1H-pyrrol-3-yl)picolinamide] |
| 276 | O=C(Nc1ccn(S(=O)(=O)c2cc(F)c(F)c(F)c2)c1)c1ccccn1 [Example 126, N-(1-((3,4,5-trifluorophenyl)sulfonyl)-1H-pyrrol-3-yl)picolinamide] |
| 104 | Cc1ccc(S(=O)(=O)n2ccc(NC(=O)c3ccccn3)c2)cc1F [Example 75, N-(1-((3-fluoro-4-methylphenyl)sulfonyl)-1H-pyrrol-3-yl)picolinamide] |
| 107 | COc1ccc(S(=O)(=O)n2ccc(NC(=O)c3ccccn3)c2)cc1 [Example 129, N-(1-((4-methoxyphenyl)sulfonyl)-1H-pyrrol-3-yl)picolinamide] |
| 5120 | O=C(Nc1ccn(S(=O)(=O)c2ccc(Cl)c(C(F)(F)F)c2)c1)c1ccccn1 [Example 102, N-(1-((4-chloro-3-(trifluoromethyl)phenyl)sulfonyl)-1H-pyrrol-3-yl)picolinamide] |
| 1040 | O=C(Nc1ccn(S(=O)(=O)c2ccc(Cl)s2)c1)c1ccccn1 [Example 131, N-(1-((5-chlorothiophen-2-yl)sulfonyl)-1H-pyrrol-3-yl)picolinamide] |
| 880 | Cc1ccc(S(=O)(=O)n2ccc(NC(=O)c3ccccn3)c2)c(C)c1 [Example 74, N-(1-((2,4-dimethylphenyl)sulfonyl)-1H-pyrrol-3-yl)picolinamide] |
| 41.1 | O=C(Nc1ccn(S(=O)(=O)c2ccc3c(c2)OCCCO3)c1)c1ccccn1 [Example 148, N-(1-((3,4-dihydro-2H-benzo[b][1,4]dioxepin-7-yl)sulfonyl)-1H-pyrrol-3-yl)picolinamide] |
| 301 | O=C(Nc1ccn(S(=O)(=O)c2ccc(F)c(F)c2F)c1)c1ccccn1 [Example 139, N-(1-((2,3,4-trifluorophenyl)sulfonyl)-1H-pyrrol-3-yl)picolinamide] |
